Tests used:
Assay type in all cases: cell-based
Settings in all cases: compounds at 50 nM and 500 nM
IKZF3 = biological target: T1, IKZF3 (Homo sapiens, UniProt Q96SW2+Q9UKT9); assay: Western blot degradation of IKZF3 in hPBMCs (24 h)
T1 construct: The supernatant was aspirated as the extracted total cell protein; endogenous in cells; host or cells: human peripheral blood mononuclear cells (hPBMCs)
In short: (§1)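 hPBMCs (1×10^6 cells/mL) were treated with compound at 50 nM and 500 nM for 24 h, lysed in RIPA with protease inhibitors and analysed by SDS-PAGE/Western blot. Band grayscale, normalised to internal control, gave protein remaining (%); DC50 estimated versus DMSO bands.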

IKZF1 = biological target: T2, IKZF1 (Homo sapiens, UniProt Q13422+Q96SW2); assay: Western blot degradation of IKZF1 in hPBMCs (24 h)
T2 construct: The supernatant was aspirated as the extracted total cell protein; endogenous in cells; host or cells: human peripheral blood mononuclear cells (hPBMCs)
In short: as §1

WEE1 = biological target: T3, WEE1 (Homo sapiens, UniProt P30291+Q96SW2); assay: Western blot degradation of WEE1 in hPBMCs (24 h)
T3 construct: The supernatant was aspirated as the extracted total cell protein; endogenous in cells; host or cells: human peripheral blood mononuclear cells (hPBMCs)
In short: as §1

IKZF2 = biological target: T4, IKZF2 (Homo sapiens, UniProt Q96SW2+Q9UKS7); assay: Western blot degradation of IKZF2 in hPBMCs (24 h)
T4 construct: The supernatant was aspirated as the extracted total cell protein; endogenous in cells; host or cells: human peripheral blood mononuclear cells (hPBMCs)
In short: as §1

CK1α = biological target: T5, CK1α (Homo sapiens, UniProt P48729+Q96SW2); assay: Western blot degradation of CK1α in hPBMCs (24 h)
T5 construct: The supernatant was aspirated as the extracted total cell protein; endogenous in cells; host or cells: human peripheral blood mononuclear cells (hPBMCs)
In short: as §1

GSPT1 = biological target: T6, GSPT1 (Homo sapiens, UniProt P15170+Q96SW2); assay: Western blot degradation of GSPT1 in hPBMCs (24 h)
T6 construct: The supernatant was aspirated as the extracted total cell protein; endogenous in cells; host or cells: human peripheral blood mononuclear cells (hPBMCs)
In short: as §1

T1 sequence (Q9UKT9 whole entry): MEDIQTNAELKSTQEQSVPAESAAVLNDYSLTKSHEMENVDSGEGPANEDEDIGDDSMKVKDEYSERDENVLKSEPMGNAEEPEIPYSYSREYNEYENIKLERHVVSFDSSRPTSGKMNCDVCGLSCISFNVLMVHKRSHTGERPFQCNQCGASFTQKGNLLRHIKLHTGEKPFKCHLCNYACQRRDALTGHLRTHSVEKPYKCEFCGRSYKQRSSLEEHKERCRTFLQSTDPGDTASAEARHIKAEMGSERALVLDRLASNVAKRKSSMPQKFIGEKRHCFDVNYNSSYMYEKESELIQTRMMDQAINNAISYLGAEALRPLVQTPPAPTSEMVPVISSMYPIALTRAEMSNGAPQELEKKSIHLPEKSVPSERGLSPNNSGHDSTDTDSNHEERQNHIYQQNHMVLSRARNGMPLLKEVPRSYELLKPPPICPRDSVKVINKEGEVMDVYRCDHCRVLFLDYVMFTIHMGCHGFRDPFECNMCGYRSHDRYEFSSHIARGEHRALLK
T1 sequence (Q96SW2 whole entry): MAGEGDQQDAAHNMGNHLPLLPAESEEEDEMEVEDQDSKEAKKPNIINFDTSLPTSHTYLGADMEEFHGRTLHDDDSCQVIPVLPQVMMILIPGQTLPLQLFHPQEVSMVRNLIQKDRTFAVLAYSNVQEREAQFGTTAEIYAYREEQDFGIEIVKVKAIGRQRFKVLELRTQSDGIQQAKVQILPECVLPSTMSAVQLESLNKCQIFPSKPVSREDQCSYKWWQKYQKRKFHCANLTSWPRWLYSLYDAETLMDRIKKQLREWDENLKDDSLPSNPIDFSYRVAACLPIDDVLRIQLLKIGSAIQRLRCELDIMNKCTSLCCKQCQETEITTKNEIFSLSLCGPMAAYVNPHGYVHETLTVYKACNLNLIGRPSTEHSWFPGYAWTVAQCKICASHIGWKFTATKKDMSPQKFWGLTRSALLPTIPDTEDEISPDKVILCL
T1 sequence (Q16531 whole entry partner): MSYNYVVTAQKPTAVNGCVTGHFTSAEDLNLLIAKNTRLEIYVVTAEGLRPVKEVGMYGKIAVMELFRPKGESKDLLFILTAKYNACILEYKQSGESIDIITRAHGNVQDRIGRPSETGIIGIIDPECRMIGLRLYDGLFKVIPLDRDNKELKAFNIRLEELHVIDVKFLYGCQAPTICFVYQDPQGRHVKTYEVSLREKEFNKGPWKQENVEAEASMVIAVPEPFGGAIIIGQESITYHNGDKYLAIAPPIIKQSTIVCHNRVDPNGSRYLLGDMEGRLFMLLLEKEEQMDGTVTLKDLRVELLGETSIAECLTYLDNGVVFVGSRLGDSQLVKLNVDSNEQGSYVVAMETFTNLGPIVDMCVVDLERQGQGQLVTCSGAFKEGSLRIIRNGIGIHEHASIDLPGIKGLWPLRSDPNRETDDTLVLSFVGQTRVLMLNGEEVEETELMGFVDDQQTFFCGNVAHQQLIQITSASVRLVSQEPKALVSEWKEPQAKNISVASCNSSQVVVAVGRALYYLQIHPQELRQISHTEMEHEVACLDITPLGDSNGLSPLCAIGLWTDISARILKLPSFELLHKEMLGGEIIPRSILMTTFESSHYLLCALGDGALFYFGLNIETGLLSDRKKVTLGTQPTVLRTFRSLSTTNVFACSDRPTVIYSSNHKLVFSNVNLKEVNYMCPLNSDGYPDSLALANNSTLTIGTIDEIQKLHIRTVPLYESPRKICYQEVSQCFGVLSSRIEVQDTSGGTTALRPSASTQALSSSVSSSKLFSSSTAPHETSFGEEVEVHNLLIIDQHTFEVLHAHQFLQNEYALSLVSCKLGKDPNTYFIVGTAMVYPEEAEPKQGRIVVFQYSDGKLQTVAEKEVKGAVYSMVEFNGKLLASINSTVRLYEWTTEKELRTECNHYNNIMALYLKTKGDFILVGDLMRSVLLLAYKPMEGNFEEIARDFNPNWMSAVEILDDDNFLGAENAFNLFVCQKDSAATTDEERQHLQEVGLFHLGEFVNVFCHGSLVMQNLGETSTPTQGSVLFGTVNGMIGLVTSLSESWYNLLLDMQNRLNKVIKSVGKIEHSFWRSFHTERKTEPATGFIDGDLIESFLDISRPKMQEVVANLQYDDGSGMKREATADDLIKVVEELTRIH
T4 sequence (Q9UKS7 whole entry): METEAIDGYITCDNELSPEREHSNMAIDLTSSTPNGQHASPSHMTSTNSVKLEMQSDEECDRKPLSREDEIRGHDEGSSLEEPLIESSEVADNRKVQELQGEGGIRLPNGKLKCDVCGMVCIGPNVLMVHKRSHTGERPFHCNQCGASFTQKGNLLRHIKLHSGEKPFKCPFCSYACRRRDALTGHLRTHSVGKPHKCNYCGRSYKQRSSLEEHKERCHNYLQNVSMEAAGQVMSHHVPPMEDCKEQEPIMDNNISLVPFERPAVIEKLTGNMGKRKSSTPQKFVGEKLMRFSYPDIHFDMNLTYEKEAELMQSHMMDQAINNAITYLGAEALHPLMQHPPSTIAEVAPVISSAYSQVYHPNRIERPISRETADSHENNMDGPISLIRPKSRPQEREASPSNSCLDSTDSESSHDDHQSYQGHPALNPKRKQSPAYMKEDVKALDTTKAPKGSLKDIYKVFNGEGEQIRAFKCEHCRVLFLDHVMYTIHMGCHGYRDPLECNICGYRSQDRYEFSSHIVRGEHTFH
T4 sequence (Q96SW2 whole entry): as the sequence (Q96SW2 whole entry) above
T4 sequence (Q16531 whole entry partner): as the sequence (Q16531 whole entry partner) above
T5 sequence (P48729 whole entry): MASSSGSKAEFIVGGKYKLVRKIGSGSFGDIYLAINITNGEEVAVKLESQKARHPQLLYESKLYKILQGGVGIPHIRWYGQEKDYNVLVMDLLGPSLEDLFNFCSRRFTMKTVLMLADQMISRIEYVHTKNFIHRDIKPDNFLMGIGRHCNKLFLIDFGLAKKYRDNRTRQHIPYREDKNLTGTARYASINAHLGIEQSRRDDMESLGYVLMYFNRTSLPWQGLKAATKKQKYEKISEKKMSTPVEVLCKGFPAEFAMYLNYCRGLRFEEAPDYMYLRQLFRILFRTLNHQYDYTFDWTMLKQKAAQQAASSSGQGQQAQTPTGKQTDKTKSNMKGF
T5 sequence (Q96SW2 whole entry): as the sequence (Q96SW2 whole entry) above
T5 sequence (Q16531 whole entry partner): as the sequence (Q16531 whole entry partner) above
T2 sequence (Q13422 whole entry): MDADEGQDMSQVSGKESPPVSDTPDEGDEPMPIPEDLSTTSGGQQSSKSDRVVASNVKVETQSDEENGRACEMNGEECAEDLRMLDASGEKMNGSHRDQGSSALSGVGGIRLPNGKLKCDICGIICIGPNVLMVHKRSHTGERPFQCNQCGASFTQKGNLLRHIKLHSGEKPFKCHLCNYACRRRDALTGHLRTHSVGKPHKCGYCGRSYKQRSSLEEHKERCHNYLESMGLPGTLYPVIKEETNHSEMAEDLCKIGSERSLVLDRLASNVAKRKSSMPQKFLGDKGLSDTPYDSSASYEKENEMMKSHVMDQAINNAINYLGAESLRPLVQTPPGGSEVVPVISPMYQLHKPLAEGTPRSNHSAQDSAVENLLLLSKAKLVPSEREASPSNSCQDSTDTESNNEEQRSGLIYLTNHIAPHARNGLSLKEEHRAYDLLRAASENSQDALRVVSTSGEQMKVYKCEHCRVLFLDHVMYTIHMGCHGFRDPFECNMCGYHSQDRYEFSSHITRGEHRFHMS
T2 sequence (Q96SW2 whole entry): as the sequence (Q96SW2 whole entry) above
T2 sequence (Q16531 whole entry partner): as the sequence (Q16531 whole entry partner) above
T6 sequence (P15170 whole entry): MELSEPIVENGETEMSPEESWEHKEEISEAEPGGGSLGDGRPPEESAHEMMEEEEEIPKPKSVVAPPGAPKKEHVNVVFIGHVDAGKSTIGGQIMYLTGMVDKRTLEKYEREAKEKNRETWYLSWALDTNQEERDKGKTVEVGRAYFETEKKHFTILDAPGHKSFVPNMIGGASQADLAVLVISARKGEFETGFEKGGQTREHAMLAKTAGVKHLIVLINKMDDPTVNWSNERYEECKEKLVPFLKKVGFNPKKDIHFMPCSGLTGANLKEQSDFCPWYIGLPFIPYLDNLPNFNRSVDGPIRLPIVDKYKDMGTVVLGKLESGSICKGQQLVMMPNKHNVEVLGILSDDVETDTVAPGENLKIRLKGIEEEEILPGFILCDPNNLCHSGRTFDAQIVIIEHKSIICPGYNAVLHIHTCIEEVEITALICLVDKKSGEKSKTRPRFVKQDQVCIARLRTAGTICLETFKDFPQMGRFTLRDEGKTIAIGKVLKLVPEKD
T6 sequence (Q96SW2 whole entry): as the sequence (Q96SW2 whole entry) above
T6 sequence (Q16531 whole entry partner): as the sequence (Q16531 whole entry partner) above

| SMILES | IKZF3 substrate protein remaining % (IKZF3) | IKZF1 substrate protein remaining % (IKZF1) | WEE1 substrate protein remaining % (WEE1) | IKZF2 substrate protein remaining % (IKZF2) | CK1α substrate protein remaining % (CK1α) | GSPT1 substrate protein remaining % (GSPT1) |
| --- | --- | --- | --- | --- | --- | --- |
| O=C1CCN(N2Cc3cc(CN4CCN(c5ccncc5)CC4)ccc3C2=O)C(=O)N1 [GT-05437, 1-(1-oxo-5-((4-(pyridin-4-yl)piperazin-1-yl)methyl)isoindolin-2-yl)dihydropyrimidine-2,4(1H,3H)-dione] | B (80%< substrate protein remaining % ≤100%) | B (80%< substrate protein remaining % ≤100%) | B (80%< substrate protein remaining % ≤100%) | B (80%< substrate protein remaining % ≤100%) | B (80%< substrate protein remaining % ≤100%) | A (0% ≤ substrate protein remaining % ≤80%) |
| Cc1cc(N2CCN(Cc3ccc4c(c3)CN(N3CCC(=O)NC3=O)C4=O)CC2)ccn1 [GT-05438, 1-(5-((4-(2-methylpyridin-4-yl)piperazin-1-yl)methyl)-1-oxoisoindolin-2-yl)dihydropyrimidine-2,4(1H,3H)-dione] | A (0% ≤ substrate protein remaining % ≤80%) | A (0% ≤ substrate protein remaining % ≤80%) | A (0% ≤ substrate protein remaining % ≤80%) | B (80%< substrate protein remaining % ≤100%) | A (0% ≤ substrate protein remaining % ≤80%) | A (0% ≤ substrate protein remaining % ≤80%) |
| O=C1CCN(N2Cc3cc(CN4CCN(c5ccncc5F)CC4)ccc3C2=O)C(=O)N1 [GT-05697, 1-(5-((4-(3-fluoropyridin-4-yl)piperazin-1-yl)methyl)-1-oxoisoindolin-2-yl)dihydropyrimidine-2,4(1H,3H)-dione] | B (80%< substrate protein remaining % ≤100%) | B (80%< substrate protein remaining % ≤100%) | A (0% ≤ substrate protein remaining % ≤80%) | B (80%< substrate protein remaining % ≤100%) | B (80%< substrate protein remaining % ≤100%) | A (0% ≤ substrate protein remaining % ≤80%) |
| O=C1CCN(N2Cc3cc(CN4CCN(C(c5ccccc5)c5cccnc5)CC4)ccc3C2=O)C(=O)N1 (stereo not drawn) [GT-06376, 1-(1-oxo-5-((4-(phenyl(pyridin-3-yl)methyl)piperazin-1-yl)methyl)isoindolin-2-yl)dihydropyrimidine-2,4(1H,3H)-dione] | B (80%< substrate protein remaining % ≤100%) | B (80%< substrate protein remaining % ≤100%) | A (0% ≤ substrate protein remaining % ≤80%) | A (0% ≤ substrate protein remaining % ≤80%) | B (80%< substrate protein remaining % ≤100%) | A (0% ≤ substrate protein remaining % ≤80%) |
| O=C1CCN(N2C(=O)c3ccc(CN4CCN(C(c5ccccc5)c5cccnc5)CC4)cc3C2=O)C(=O)N1 (stereo not drawn) [GT-06377, 2-(2,4-dioxotetrahydropyrimidin-1(2H)-yl)-5-((4-(phenyl(pyridin-3-yl)methyl)piperazin-1-yl)methyl)isoindoline-1,3-dione] | B (80%< substrate protein remaining % ≤100%) | B (80%< substrate protein remaining % ≤100%) | A (0% ≤ substrate protein remaining % ≤80%) | A (0% ≤ substrate protein remaining % ≤80%) | B (80%< substrate protein remaining % ≤100%) | B (80%< substrate protein remaining % ≤100%) |
| O=C1CCN(N2C(=O)c3ccc(CN4CCN(C(c5ccccc5)c5ccncc5)CC4)cc3C2=O)C(=O)N1 (stereo not drawn) [GT-06378, 2-(2,4-dioxotetrahydropyrimidin-1(2H)-yl)-5-((4-(phenyl(pyridin-4-yl)methyl)piperazin-1-yl)methyl)isoindoline-1,3-dione] | A (0% ≤ substrate protein remaining % ≤80%) | B (80%< substrate protein remaining % ≤100%) | A (0% ≤ substrate protein remaining % ≤80%) | A (0% ≤ substrate protein remaining % ≤80%) | B (80%< substrate protein remaining % ≤100%) | B (80%< substrate protein remaining % ≤100%) |
| O=C1CCN(N2C(=O)c3ccc(CN4CCN(C(c5ccccn5)c5ccccn5)CC4)cc3C2=O)C(=O)N1 [GT-06379, 5-((4-(di(pyridin-2-yl)methyl)piperazin-1-yl)methyl)-2-(2,4-dioxotetrahydropyrimidin-1(2H)-yl)isoindoline-1,3-dione] | A (0% ≤ substrate protein remaining % ≤80%) | B (80%< substrate protein remaining % ≤100%) | A (0% ≤ substrate protein remaining % ≤80%) | A (0% ≤ substrate protein remaining % ≤80%) | B (80%< substrate protein remaining % ≤100%) | A (0% ≤ substrate protein remaining % ≤80%) |
| CC1(C)CN(Cc2ccc3c(c2)C(=O)N(N2CCC(=O)NC2=O)C3=O)CCN1C(c1ccccc1)c1ccccc1 [GT-06385, 5-((4-benzhydryl-3,3-dimethylpiperazin-1-yl)methyl)-2-(2,4-dioxotetrahydropyrimidin-1(2H)-yl)isoindoline-1,3-dione] | A (0% ≤ substrate protein remaining % ≤80%) | B (80%< substrate protein remaining % ≤100%) | A (0% ≤ substrate protein remaining % ≤80%) | B (80%< substrate protein remaining % ≤100%) | B (80%< substrate protein remaining % ≤100%) | A (0% ≤ substrate protein remaining % ≤80%) |
| O=C1CCN(N2Cc3cc(CN4CCC(c5nccc(Cl)c5Cl)CC4)ccc3C2=O)C(=O)N1 [GT-06388, 1-(5-((4-(3,4-dichloropyridin-2-yl)piperidin-1-yl)methyl)-1-oxoisoindolin-2-yl)dihydropyrimidine-2,4(1H,3H)-dione] | B (80%< substrate protein remaining % ≤100%) | B (80%< substrate protein remaining % ≤100%) | B (80%< substrate protein remaining % ≤100%) | B (80%< substrate protein remaining % ≤100%) | B (80%< substrate protein remaining % ≤100%) | A (0% ≤ substrate protein remaining % ≤80%) |
| O=C1CCN(N2Cc3cc(CN4CCC(c5ccnc(Cl)c5Cl)CC4)ccc3C2=O)C(=O)N1 [GT-06390, 1-(5-((4-(2,3-dichloropyridin-4-yl)piperidin-1-yl)methyl)-1-oxoisoindolin-2-yl)dihydropyrimidine-2,4(1H,3H)-dione] | B (80%< substrate protein remaining % ≤100%) | B (80%< substrate protein remaining % ≤100%) | B (80%< substrate protein remaining % ≤100%) | B (80%< substrate protein remaining % ≤100%) | B (80%< substrate protein remaining % ≤100%) | A (0% ≤ substrate protein remaining % ≤80%) |
| O=C1CCN(N2Cc3cc(CN4CC=C(c5cncc(Cl)c5)CC4)ccc3C2=O)C(=O)N1 [GT-06394, 1-(5-((5-chloro-3′,6′-dihydro-[3,4′-bipyridin]-1′ (2′H)-yl)methyl)-1-oxoisoindolin-2-yl)dihydropyrimidine-2,4(1H,3H)-dione] | B (80%< substrate protein remaining % ≤100%) | B (80%< substrate protein remaining % ≤100%) | B (80%< substrate protein remaining % ≤100%) | A (0% ≤ substrate protein remaining % ≤80%) | A (0% ≤ substrate protein remaining % ≤80%) | A (0% ≤ substrate protein remaining % ≤80%) |
| O=C1CCN(N2Cc3cc(CN4CC=C(c5ncccc5F)CC4)ccc3C2=O)C(=O)N1 [GT-06395, 1-(5-((3-fluoro-3′,6′-dihydro-[2,4′-bipyridin]-1′ (2′H)-yl)methyl)-1-oxoisoindolin-2-yl)dihydropyrimidine-2,4(1H,3H)-dione] | B (80%< substrate protein remaining % ≤100%) | B (80%< substrate protein remaining % ≤100%) | B (80%< substrate protein remaining % ≤100%) | B (80%< substrate protein remaining % ≤100%) | A (0% ≤ substrate protein remaining % ≤80%) | A (0% ≤ substrate protein remaining % ≤80%) |
| O=C1CCN(N2Cc3cc(CN4CCC(c5ccnc(F)c5F)CC4)ccc3C2=O)C(=O)N1 [GT-06396, 1-(5-((4-(2,3-difluoropyridin-4-yl)piperidin-1-yl)methyl)-1-oxoisoindolin-2-yl)dihydropyrimidine-2,4(1H,3H)-dione] | B (80%< substrate protein remaining % ≤100%) | B (80%< substrate protein remaining % ≤100%) | B (80%< substrate protein remaining % ≤100%) | B (80%< substrate protein remaining % ≤100%) | A (0% ≤ substrate protein remaining % ≤80%) | B (80%< substrate protein remaining % ≤100%) |

Reference: patent publication US20260356819A1, “OXOISOINDOLINYL-SUBSTITUTED […] DERIVATIVE AND USE THEREOF” (GLUETACS THERAPEUTICS (SHANGHAI) CO., LTD., priority 2023, published 2026)
